CC(=O)c1cccc([N+](=O)[O-])c1
solubility (mole fraction)
Settings	in acetone	in acetonitrile	in cyclohexane	in ethanol	in ethyl acetate	in isopropanol	in methanol	in n-propanol	in toluene
278.15 K	0.1	0.0717	–	0.00487	0.0782	0.00433	0.00642	0.00388	0.0545
283.15 K	0.121	0.0892	0.00124	0.00619	0.0906	0.00517	0.00759	0.00487	0.0657
288.15 K	0.146	0.116	0.00159	0.00785	0.109	0.00635	0.00928	0.00609	0.082
293.15 K	0.179	0.147	0.00204	0.00993	0.132	0.00778	0.0117	0.00763	0.103
298.15 K	0.218	0.185	0.0026	0.0125	0.159	0.00944	0.0146	0.00975	0.128
303.15 K	0.264	0.233	0.00333	0.0158	0.191	0.0117	0.0183	0.0124	0.161
308.15 K	0.319	0.292	0.0043	0.0204	0.23	0.0145	0.0231	0.0157	0.2
313.15 K	0.384	0.367	0.0056	0.0262	0.277	0.018	0.0299	0.0204	0.254
318.15 K	0.458	0.454	0.00743	0.0355	0.341	0.023	0.0389	0.0265	0.328

CC(=O)c1ccc([N+](=O)[O-])cc1
solubility (mole fraction)
Settings	in acetone	in acetonitrile	in cyclohexane	in ethanol	in ethyl acetate	in isopropanol	in methanol	in n-propanol	in toluene
278.15 K	0.134	0.103	–	0.00667	0.101	0.00349	0.00839	0.00481	0.0674
283.15 K	0.158	0.123	0.00154	0.00821	0.117	0.00455	0.0102	0.00608	0.0806
288.15 K	0.185	0.146	0.00203	0.01	0.137	0.00577	0.0125	0.00762	0.0959
293.15 K	0.216	0.174	0.00259	0.0123	0.161	0.00758	0.0155	0.00968	0.114
298.15 K	0.25	0.206	0.00332	0.0155	0.188	0.00978	0.0187	0.0121	0.137
303.15 K	0.287	0.244	0.00423	0.019	0.22	0.0128	0.0231	0.0154	0.164
308.15 K	0.33	0.287	0.00542	0.0236	0.257	0.0169	0.0283	0.0194	0.195
313.15 K	0.376	0.336	0.00694	0.0293	0.3	0.0223	0.0343	0.0246	0.232
318.15 K	0.428	0.389	0.0089	0.0365	0.345	0.0296	0.0421	0.0313	0.275
